ChEMBL document CHEMBL1201862, “PubChem BioAssay data set” (2004)
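Growth conditions: 96-well plates. Treatment: test compound, 48 hours, 5 concentrations. Analysis: linear interpolation between bracketing concentrations; unreached endpoints set to highest concentration. GI50 = concentration required for 50% inhibition of growth.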 Calls of active or inactive are those of the source. Rule as the data show it: active = GI50 up to about 1.1 µM and inactive = higher.

Legend:
Assay in all cases: NCI-60 cell line screen, 48 h
SR = tested on: SR
IGROV-1 = tested on: IGROV-1
UACC-257 = tested on: UACC-257
COLO 205 = tested on: COLO 205
HL-60 = tested on: HL-60
Hs-578T = tested on: Hs-578T
MOLT-4 = tested on: MOLT-4
NCI-H23 = tested on: NCI-H23
EKVX = tested on: EKVX
OVCAR-8 = tested on: OVCAR-8
SNB-75 = tested on: SNB-75
Malme-3M = tested on: Malme-3M
HCT-116 = tested on: HCT-116
TK-10 = tested on: TK-10
NCI-H522 = tested on: NCI-H522
MDA-MB-435 = tested on: MDA-MB-435
OVCAR-5 = tested on: OVCAR-5
SW-620 = tested on: SW-620
NCI/ADR-RES = tested on: NCI/ADR-RES
BT-549 = tested on: BT-549
KM12 = tested on: KM12
NCI-H226 = tested on: NCI-H226
SK-MEL-2 = tested on: SK-MEL-2
786-0 = tested on: 786-0
HOP-92 = tested on: HOP-92
UO-31 = tested on: UO-31
CAKI-1 = tested on: CAKI-1
SF-539 = tested on: SF-539
HCT-15 = tested on: HCT-15
T47D = tested on: T47D
PC-3 = tested on: PC-3
A549 = tested on: A549
U-251 = tested on: U-251
SNB-19 = tested on: SNB-19
SN12C = tested on: SN12C
NCI-H460 = tested on: NCI-H460
HCC 2998 = tested on: HCC 2998
SF-295 = tested on: SF-295
SK-MEL-28 = tested on: SK-MEL-28
MDA-MB-231 = tested on: MDA-MB-231
A498 = tested on: A498
SF-268 = tested on: SF-268
OVCAR-3 = tested on: OVCAR-3
SK-OV-3 = tested on: SK-OV-3
RPMI-8226 = tested on: RPMI-8226
HOP-62 = tested on: HOP-62
CCRF-CEM = tested on: CCRF-CEM
SK-MEL-5 = tested on: SK-MEL-5
MCF7 = tested on: MCF7
RXF 393 = tested on: RXF 393
LOX IMVI = tested on: LOX IMVI
M14 = tested on: M14
K562 = tested on: K562
ACHN = tested on: ACHN
UACC-62 = tested on: UACC-62
HT-29 = tested on: HT-29
OVCAR-4 = tested on: OVCAR-4
DU-145 = tested on: DU-145
MDA-N = tested on: MDA-N

Measured: GI50

CC(=O)O[C@H]1[C@@H](N2CCCCC2)C[C@H]2[C@@H]3CC=C4C[C@@H](N5CCCC5)CC[C@]4(C)[C@H]3CC[C@@]21C
19.4 µM: HCT-15
inactive: SR 2.74 µM | IGROV-1 > 100 µM | UACC-257 30.8 µM | COLO 205 > 100 µM | HL-60 24.9 µM | Hs-578T > 100 µM | MOLT-4 44.5 µM | NCI-H23 > 100 µM | EKVX > 100 µM | OVCAR-8 > 100 µM | SNB-75 > 100 µM | Malme-3M 22.8 µM | HCT-116 64.3 µM | TK-10 > 100 µM | NCI-H522 > 100 µM | MDA-MB-435 28.6 µM | OVCAR-5 48.6 µM | SW-620 > 100 µM | NCI/ADR-RES > 100 µM | BT-549 > 100 µM | KM12 > 100 µM | NCI-H226 > 100 µM | SK-MEL-2 > 100 µM | 786-0 36.7 µM | HOP-92 91.8 µM | UO-31 > 100 µM | CAKI-1 > 100 µM | SF-539 17.8 µM | T47D > 100 µM | PC-3 43.4 µM | A549 > 100 µM | U-251 69 µM | SNB-19 > 100 µM | SN12C > 100 µM | NCI-H460 91.6 µM | HCC 2998 14.3 µM | SF-295 67.5 µM | SK-MEL-28 22 µM | MDA-MB-231 > 100 µM | A498 > 100 µM | SF-268 > 100 µM | OVCAR-3 > 100 µM | SK-OV-3 > 100 µM | RPMI-8226 26.5 µM | HOP-62 49.8 µM | CCRF-CEM 31.9 µM | SK-MEL-5 32.4 µM | MCF7 > 100 µM | RXF 393 32.7 µM | LOX IMVI 35.6 µM | M14 19.2 µM | K562 4.07 µM | ACHN > 100 µM | UACC-62 > 100 µM | HT-29 15.3 µM | OVCAR-4 > 100 µM

Cc1c(/C=N/NC(=S)Nc2cccc(Cl)c2)c(=O)n(-c2ccccc2)n1C
3.91 µM: HCT-15
inactive: SR 50.1 µM | IGROV-1 18.2 µM | UACC-257 32.4 µM | COLO 205 96.6 µM | HL-60 24 µM | Hs-578T 13.9 µM | MOLT-4 31.3 µM | NCI-H23 28.7 µM | EKVX 6.65 µM | OVCAR-8 14.1 µM | SNB-75 15 µM | HCT-116 34 µM | TK-10 16.6 µM | MDA-MB-435 > 100 µM | SW-620 51.2 µM | NCI/ADR-RES 4.35 µM | BT-549 21.4 µM | KM12 18.7 µM | NCI-H226 13.8 µM | SK-MEL-2 18.6 µM | 786-0 18.3 µM | HOP-92 13.3 µM | UO-31 15.3 µM | CAKI-1 13 µM | SF-539 17.1 µM | DU-145 24.1 µM | T47D 30.4 µM | PC-3 34.6 µM | U-251 20.7 µM | SNB-19 19.1 µM | NCI-H460 9.4 µM | HCC 2998 55.6 µM | SF-295 10.4 µM | SK-MEL-28 > 100 µM | MDA-MB-231 17.6 µM | A498 3.14 µM | SF-268 16.4 µM | SK-OV-3 18.2 µM | RPMI-8226 40.9 µM | HOP-62 13.9 µM | CCRF-CEM 22.6 µM | SK-MEL-5 36.1 µM | MCF7 24.2 µM | RXF 393 15.8 µM | LOX IMVI 46.8 µM | M14 16.6 µM | K562 13.8 µM | ACHN 14.7 µM | UACC-62 30.7 µM | HT-29 27.9 µM | OVCAR-4 16.4 µM

COc1ccc([C@@H]2ON(C)[C@H]3CN(C)C(=O)[C@@H]23)cc1
> 100 µM: HCT-15
inactive: SR > 100 µM | IGROV-1 > 100 µM | UACC-257 > 100 µM | COLO 205 > 100 µM | HL-60 > 100 µM | Hs-578T > 100 µM | MOLT-4 > 100 µM | NCI-H23 > 100 µM | OVCAR-8 > 100 µM | SNB-75 10.1 µM | HCT-116 > 100 µM | TK-10 > 100 µM | NCI-H522 > 100 µM | OVCAR-5 > 100 µM | SW-620 > 100 µM | NCI/ADR-RES > 100 µM | NCI-H226 > 100 µM | SK-MEL-2 > 100 µM | HOP-92 > 100 µM | UO-31 > 100 µM | CAKI-1 > 100 µM | DU-145 > 100 µM | T47D > 100 µM | PC-3 > 100 µM | A549 > 100 µM | U-251 > 100 µM | SNB-19 > 100 µM | SN12C > 100 µM | NCI-H460 > 100 µM | HCC 2998 > 100 µM | MDA-N > 100 µM | SF-295 > 100 µM | SK-MEL-28 > 100 µM | MDA-MB-231 > 100 µM | OVCAR-3 > 100 µM | SK-OV-3 > 100 µM | RPMI-8226 > 100 µM | HOP-62 > 100 µM | CCRF-CEM > 100 µM | SK-MEL-5 > 100 µM | MCF7 > 100 µM | LOX IMVI > 100 µM | M14 > 100 µM | K562 > 100 µM | ACHN > 100 µM | HT-29 > 100 µM | OVCAR-4 > 100 µM
